Legend:
Assay in all cases: relative viability vs DMSO control (72 h) (fraction); higher = more viable cells
KHOS-240S = system: KHOS-240S
Summary of the method: (§1)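 After seeding at densities set for 80–90% confluence in 384-well plates, sarcoma cell lines waited 24 h before 2.5 µl of serially diluted compound was added. Source plates held 10 mM down to 0.0002 mM. Plates were incubated 72 h at 37 °C with 5% CO2, with 0.1% DMSO vehicle and a 5 µM positive control, and relative viability was taken from ATPLite as percent growth averaged over up to triplicate wells, with 1 set as full and 0 as none.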

MES-SA = system: MES-SA
Summary of the method: as §1

RD = system: RD
Summary of the method: as §1

SW1353 = system: SW1353
Summary of the method: as §1

SYO-1 = system: SYO-1
Summary of the method: as §1

O=c1sn(-c2cccc3ccccc23)c(=O)n1Cc1ccccc1 [Tideglusib]
relative viability
Conditions | KHOS-240S | MES-SA | RD | SW1353 | SYO-1
0.00017 µM | 1.05 | 0.972 | 1.08 | 1.07 | 1.01
0.00051 µM | 1.07 | 0.971 | 1.12 | 1.05 | 0.987
0.00152 µM | 1.09 | 0.946 | 1.13 | 1.08 | 0.999
0.00457 µM | 1.07 | 0.968 | 1.12 | 1.04 | 0.97
0.01372 µM | 1.08 | 0.962 | 1.14 | 1.02 | 0.956
0.04115 µM | 1.07 | 0.963 | 1.13 | 1.05 | 0.944
0.1235 µM | 1.07 | 0.959 | 1.11 | 1.03 | 0.949
0.3704 µM | 1.06 | 0.95 | 1.1 | 0.966 | 0.953
1.111 µM | 1.03 | 0.94 | 1.1 | 1.01 | 0.969
3.333 µM | 1.01 | 0.924 | 1.12 | 0.987 | 0.944
10 µM | 0.993 | 0.878 | 1.12 | 0.827 | 0.891

Cc1cc2cc(Oc3ccnc(Nc4cccc(CS(=O)(=O)NCCN(C)C)c4)n3)ccc2[nH]1 [Sulfatinib]
relative viability
Conditions | KHOS-240S | MES-SA | RD | SW1353 | SYO-1
0.00017 µM | 1.02 | 0.911 | 1.074 | 0.936 | 0.943
0.00051 µM | 1.02 | 0.92 | 1.09 | 0.911 | 0.962
0.00152 µM | 1.02 | 0.913 | 1.09 | 0.925 | 0.945
0.00457 µM | 1.03 | 0.906 | 1.123 | 0.941 | 0.938
0.01372 µM | 1.05 | 0.925 | 1.1 | 0.975 | 0.9
0.04115 µM | 1.02 | 0.894 | 1.094 | 0.922 | 0.865
0.1235 µM | 1.012 | 0.9221 | 1.12 | 0.964 | 0.805
0.3704 µM | 0.961 | 0.9312 | 1.09 | 0.931 | 0.607
1.111 µM | 0.936 | 0.969 | 1.07 | 0.906 | 0.423
3.333 µM | 0.741 | 0.791 | 0.981 | 0.845 | 0.341
10 µM | 0.382 | 0.299 | 0.456 | 0.565 | 0.105
